ChEMBL document CHEMBL5500400, “Design and Discovery of a Potent and Selective Inhibitor of Integrin αvβ1” (J Med Chem, 2024)
Each block holds one compound with its values, some of them ahead of it.

How the values were obtained:
Integrin alpha-V/beta-1 [1] = biological target: T1, Integrin alpha-V/beta-1 (Homo sapiens, UniProt P05556+P06756); experiment: Inhibition of recombinant human Integrin alphaVbeta1 using TMB as substrate incubated for 2 hrs in presence of fibronectin by ELISA; assay type: protein-complex assay
[2] = Apparent permeability across apical to basolateral side in dog MDCK-MDR1 cells incubated for 60 mins by HPLC analysis; assay type: ADME, cell-based, Canis lupus familiaris
[3] = Apparent permeability across basolateral to apical side in dog MDCK-MDR1 cells incubated for 60 mins by HPLC analysis; assay type: ADME, cell-based, Canis lupus familiaris
Integrin alpha-V/beta-8 [4] = biological target: T2, Integrin alpha-V/beta-8 (Homo sapiens, UniProt P06756+P26012); experiment: Inhibition of Integrin alphaVbeta8 in human SNB-19 cells cocultured with TGF-beta expressing Mv1Lu cells assessed as inhibition of integrin alphaVbeta8 mediated TGF-beta transactivation by luciferase assay; assay type: cell-based
T2 sequence (P06756 31-889 limits assumed): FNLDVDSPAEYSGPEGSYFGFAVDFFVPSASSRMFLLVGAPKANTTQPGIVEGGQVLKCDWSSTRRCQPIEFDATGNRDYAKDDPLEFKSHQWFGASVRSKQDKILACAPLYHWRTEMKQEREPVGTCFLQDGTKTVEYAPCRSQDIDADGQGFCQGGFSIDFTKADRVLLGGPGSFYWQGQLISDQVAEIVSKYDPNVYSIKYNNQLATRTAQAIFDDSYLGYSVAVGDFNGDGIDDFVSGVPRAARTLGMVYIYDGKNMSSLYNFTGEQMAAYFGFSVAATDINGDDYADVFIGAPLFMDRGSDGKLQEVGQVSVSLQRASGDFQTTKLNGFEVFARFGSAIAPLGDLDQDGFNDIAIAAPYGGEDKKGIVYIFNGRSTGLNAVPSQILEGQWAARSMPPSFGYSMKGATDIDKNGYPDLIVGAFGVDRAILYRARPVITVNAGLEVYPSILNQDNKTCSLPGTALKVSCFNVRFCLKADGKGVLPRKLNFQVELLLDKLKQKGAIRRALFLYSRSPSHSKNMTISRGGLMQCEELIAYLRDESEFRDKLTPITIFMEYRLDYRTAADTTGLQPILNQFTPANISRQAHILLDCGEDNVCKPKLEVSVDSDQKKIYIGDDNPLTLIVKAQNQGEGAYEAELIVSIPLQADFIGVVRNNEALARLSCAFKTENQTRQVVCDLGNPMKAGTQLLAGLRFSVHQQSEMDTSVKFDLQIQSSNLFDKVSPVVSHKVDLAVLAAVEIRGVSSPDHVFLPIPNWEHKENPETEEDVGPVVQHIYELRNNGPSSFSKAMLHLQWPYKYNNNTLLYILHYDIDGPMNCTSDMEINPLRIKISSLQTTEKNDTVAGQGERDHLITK
T2 sequence (P06756 891-1048 limits assumed): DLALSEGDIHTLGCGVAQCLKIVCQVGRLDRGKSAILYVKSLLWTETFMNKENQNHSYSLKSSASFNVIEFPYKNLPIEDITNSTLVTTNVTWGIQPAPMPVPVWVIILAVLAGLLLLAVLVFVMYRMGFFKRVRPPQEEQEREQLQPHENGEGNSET
T2 sequence (P26012 43-769 limits assumed): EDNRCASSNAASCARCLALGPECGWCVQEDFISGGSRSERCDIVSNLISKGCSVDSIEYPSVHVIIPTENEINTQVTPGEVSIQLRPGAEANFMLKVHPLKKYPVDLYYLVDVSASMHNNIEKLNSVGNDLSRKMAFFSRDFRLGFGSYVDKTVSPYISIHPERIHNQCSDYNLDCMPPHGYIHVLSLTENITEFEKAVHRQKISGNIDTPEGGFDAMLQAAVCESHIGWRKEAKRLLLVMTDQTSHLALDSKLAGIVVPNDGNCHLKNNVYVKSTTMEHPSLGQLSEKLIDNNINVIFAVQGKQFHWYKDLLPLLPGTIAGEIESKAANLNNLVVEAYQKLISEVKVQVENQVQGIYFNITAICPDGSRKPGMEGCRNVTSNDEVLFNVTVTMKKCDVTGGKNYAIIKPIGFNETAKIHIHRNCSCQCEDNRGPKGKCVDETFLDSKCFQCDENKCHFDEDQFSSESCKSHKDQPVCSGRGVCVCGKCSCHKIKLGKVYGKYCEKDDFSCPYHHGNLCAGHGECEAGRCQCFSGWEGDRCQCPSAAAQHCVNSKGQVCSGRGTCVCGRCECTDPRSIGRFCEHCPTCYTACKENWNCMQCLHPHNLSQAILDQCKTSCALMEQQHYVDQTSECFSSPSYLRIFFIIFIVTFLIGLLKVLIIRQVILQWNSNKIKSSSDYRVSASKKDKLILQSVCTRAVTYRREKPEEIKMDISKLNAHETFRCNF

[5] = AUC (0 to 24 hrs) in Wistar rat at 10 mg/kg,po administration; assay type: ADME, organism-based; settings: in vivo
[6] = Cmax in Wistar rat at 10 mg/kg,po administration; assay type: ADME, organism-based; settings: in vivo
[7] = Half life in Sprague-Dawley rat at 30 mg/kg,sc administration; assay type: ADME, organism-based; settings: in vivo
Integrin alpha-V/beta-3 [8] = biological target: T3, Integrin alpha-V/beta-3 (Homo sapiens, UniProt P05106+P06756); experiment: Inhibition of recombinant human Integrin alphaVbeta3 mediated cellular adhesion expressed in HEK cells incubated for 24 hrs in presence of Ca2+ and Mg2+ by real-time cell analysis; assay type: cell-based
T3 sequence (P05106 27-788 limits assumed): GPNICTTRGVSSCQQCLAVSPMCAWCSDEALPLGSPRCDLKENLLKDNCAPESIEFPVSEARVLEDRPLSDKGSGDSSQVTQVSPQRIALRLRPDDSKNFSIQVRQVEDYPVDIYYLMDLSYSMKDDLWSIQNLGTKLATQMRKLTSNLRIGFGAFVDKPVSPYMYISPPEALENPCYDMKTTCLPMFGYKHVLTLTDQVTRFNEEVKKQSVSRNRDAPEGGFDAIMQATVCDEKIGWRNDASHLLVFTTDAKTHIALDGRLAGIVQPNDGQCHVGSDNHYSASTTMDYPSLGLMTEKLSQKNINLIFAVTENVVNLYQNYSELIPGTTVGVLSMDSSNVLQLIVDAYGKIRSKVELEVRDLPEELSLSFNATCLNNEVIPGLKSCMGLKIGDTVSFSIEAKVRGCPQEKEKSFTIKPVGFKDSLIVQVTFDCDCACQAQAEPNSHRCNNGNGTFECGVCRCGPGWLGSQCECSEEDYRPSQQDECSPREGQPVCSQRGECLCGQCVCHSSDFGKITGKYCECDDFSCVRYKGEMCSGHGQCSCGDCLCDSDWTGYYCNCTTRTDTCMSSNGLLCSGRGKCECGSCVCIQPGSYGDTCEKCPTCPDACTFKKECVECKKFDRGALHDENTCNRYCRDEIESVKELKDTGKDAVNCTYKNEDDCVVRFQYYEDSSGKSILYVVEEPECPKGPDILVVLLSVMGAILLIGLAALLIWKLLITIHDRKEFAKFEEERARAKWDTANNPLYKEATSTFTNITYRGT
T3 sequence (P06756 31-889 limits assumed): as the sequence (P06756 31-889 limits assumed) above
T3 sequence (P06756 891-1048 limits assumed): as the sequence (P06756 891-1048 limits assumed) above

Integrin alpha-V/beta-1 [9] = biological target: T1, Integrin alpha-V/beta-1; experiment: Inhibition of human Integrin alphaVbeta1 expressed in CHO-B2 cell cocultured with TGF-beta expressing Mv1Lu cells assessed as inhibition of integrin alphaVbeta1 mediated TGF-beta transactivation by luciferase assay; assay type: cell-based
Integrin alpha-5/beta-1 [10] = biological target: T4, Integrin alpha-5/beta-1 (Homo sapiens, UniProt P05556+P08648); experiment: Inhibition of Integrin alpha5beta1 mediated cellular adhesion in human HCT-116 cells incubated for 24 hrs in presence of Ca2+ and Mg2+ by real-time cell analysis; assay type: cell-based
[11] = Volume of distribution at steady state in Wistar-Han rat at 1 mg/kg,iv administration; assay type: ADME, organism-based; settings: in vivo, read-out: Vdss
[12] = Oral bioavailability in Wistar rat at 10 mg/kg administration; assay type: ADME, organism-based; settings: in vivo
Integrin alpha-V/beta-6 [13] = biological target: T5, Integrin alpha-V/beta-6 (Homo sapiens, UniProt P06756+P18564); experiment: Inhibition of human Integrin alphaVbeta6 expressed in SW480 cells cocultured with TGF-beta expressing Mv1Lu cells assessed as inhibition of integrin alphaVbeta6 mediated TGF-beta transactivation by luciferase assay; assay type: cell-based
T5 sequence (P06756 31-889 limits assumed): as the sequence (P06756 31-889 limits assumed) above
T5 sequence (P06756 891-1048 limits assumed): as the sequence (P06756 891-1048 limits assumed) above
T5 sequence (P18564 22-788 limits assumed): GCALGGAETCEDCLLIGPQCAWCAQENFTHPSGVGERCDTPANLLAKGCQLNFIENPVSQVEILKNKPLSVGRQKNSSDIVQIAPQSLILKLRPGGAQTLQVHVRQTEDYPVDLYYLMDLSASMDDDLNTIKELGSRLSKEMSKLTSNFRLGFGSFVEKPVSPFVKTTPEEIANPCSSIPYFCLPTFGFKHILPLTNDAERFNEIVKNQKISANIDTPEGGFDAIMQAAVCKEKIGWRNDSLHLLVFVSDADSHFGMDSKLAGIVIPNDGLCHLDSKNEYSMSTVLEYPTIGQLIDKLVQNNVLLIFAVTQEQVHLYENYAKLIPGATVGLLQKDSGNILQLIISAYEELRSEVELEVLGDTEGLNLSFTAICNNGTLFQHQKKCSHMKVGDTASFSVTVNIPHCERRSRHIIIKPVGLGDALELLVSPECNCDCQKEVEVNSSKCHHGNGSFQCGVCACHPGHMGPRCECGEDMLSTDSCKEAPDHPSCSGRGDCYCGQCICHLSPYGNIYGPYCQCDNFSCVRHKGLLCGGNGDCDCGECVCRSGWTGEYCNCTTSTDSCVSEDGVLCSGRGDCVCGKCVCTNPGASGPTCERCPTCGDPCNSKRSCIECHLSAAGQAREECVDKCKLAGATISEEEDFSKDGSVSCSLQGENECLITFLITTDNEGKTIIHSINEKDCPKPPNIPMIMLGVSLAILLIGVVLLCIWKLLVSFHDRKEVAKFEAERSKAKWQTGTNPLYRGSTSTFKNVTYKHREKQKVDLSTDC

[14] = AUC (0 to 24 hrs) in Wistar-Han rat at 1 mg/kg,iv administration; assay type: ADME, organism-based; settings: in vivo
[15] = AUC (0 to infinity) in Wistar-Han rat at 1 mg/kg,iv administration; assay type: ADME, organism-based; settings: in vivo
[16] = AUC (0 to infinity) in Wistar rat at 10 mg/kg,po administration; assay type: ADME, organism-based; settings: in vivo
[17] = Tmax in Wistar rat at 10 mg/kg,po administration; assay type: ADME, organism-based; settings: in vivo
[18] = Half life in Wistar rat at 10 mg/kg,po administration; assay type: ADME, organism-based; settings: in vivo
[19] = Tmax in Sprague-Dawley rat at 30 mg/kg,sc administration; assay type: ADME, organism-based; settings: in vivo
[20] = Half life in Wistar-Han rat at 1 mg/kg,iv administration; assay type: ADME, organism-based; settings: in vivo
Integrin alpha-8/beta-1 = Integrin alpha-8/beta-1 (Homo sapiens, UniProt P05556+P53708); experiment: Inhibition of recombinant human Integrin alpha8beta1 mediated cellular adhesion expressed in HEK cells incubated for 24 hrs in presence of Ca2+ and Mg2+ by real-time cell analysis; assay type: cell-based
[21] = Cmax in Sprague-Dawley rat at 30 mg/kg,sc administration; assay type: ADME, organism-based; settings: in vivo
Integrin alpha-V/beta-1 [22] = biological target: T1, Integrin alpha-V/beta-1; experiment: Inhibition of recombinant human Integrin alphaVbeta1 mediated cellular adhesion expressed in CHO-B2 cell incubated for 24 hrs in presence of Ca2+ and Mg2+ by real-time cell analysis; assay type: cell-based
Integrin alpha-4/beta-1 [23] = biological target: T6, Integrin alpha-4/beta-1 (Homo sapiens, UniProt P05556+P13612); experiment: Inhibition of Integrin alpha4beta1 mediated cellular adhesion in human Jurkat cells incubated for 24 hrs in presence of Ca2+ and Mg2+ by real-time cell analysis; assay type: cell-based
[24] = Bioavailability in Sprague-Dawley rat at 30 mg/kg,sc administration; assay type: ADME, organism-based; settings: in vivo
[25] = Drug concentration in choline-deficient high-fat diet induced Wistar-Han rat plasma at sc administration for 6 weeks from period of week 7 to 12 during high-fat diet treatment; assay type: ADME, organism-based; settings: in vivo, 1008 h
[26] = AUC (0 to infinity) in Sprague-Dawley rat at 30 mg/kg,sc administration; assay type: ADME, organism-based; settings: in vivo
[27] = Drug concentration in choline-deficient high-fat diet induced Wistar-Han rat liver at sc administration for 6 weeks from period of week 7 to 12 during high-fat diet treatment; assay type: ADME, organism-based; settings: in vivo, 1008 h
Rattus norvegicus = experiment: Antifibrotic activity against choline-deficient high-fat diet induced Wistar-Han rat liver fibrosis model assessed as reduction in liver fibrosis at sc administration for 6 weeks from period of week 7 to 12 during high-fat diet treatment by picrosirius red staining based analysis; assay type: functional, organism-based
[28] = AUC (0 to 24 hrs) in Sprague-Dawley rat at 30 mg/kg,sc administration; assay type: ADME, organism-based; settings: in vivo
[29] = Clearance in Wistar-Han rat at 1 mg/kg,iv administration; assay type: ADME, organism-based; settings: in vivo
Integrin alpha-V/beta-6 [30] = biological target: T5, Integrin alpha-V/beta-6; experiment: Inhibition of recombinant human Integrin alphaVbeta6 using TMB as substrate incubated for 2 hrs in presence of LAP by ELISA; assay type: protein-complex assay
Integrin alpha-V/beta-8 [31] = biological target: T2, Integrin alpha-V/beta-8; experiment: Inhibition of recombinant human Integrin alphaVbeta8 using TMB as substrate incubated for 2 hrs in presence of LAP by ELISA; assay type: protein-complex assay
Integrin alpha-V/beta-3 [32] = biological target: T3, Integrin alpha-V/beta-3; experiment: Inhibition of recombinant human Integrin alphaVbeta3 using TMB as substrate incubated for 2 hrs in presence of vitronectin by ELISA; assay type: protein-complex assay
Integrin alpha-5/beta-1 [33] = biological target: T4, Integrin alpha-5/beta-1; experiment: Inhibition of recombinant human Integrin alpha5beta1 using TMB as substrate incubated for 2 hrs in presence of fibronectin by ELISA; assay type: protein-complex assay
Integrin alpha-V/beta-5 = Integrin alpha-V/beta-5 (Homo sapiens, UniProt P06756+P18084); experiment: Inhibition of recombinant human Integrin alphaVbeta5 using TMB as substrate incubated for 2 hrs in presence of fibronectin by ELISA; assay type: protein-complex assay
Sequence of Integrin alpha-V/beta-5 (P06756 31-889 limits assumed): as the sequence (P06756 31-889 limits assumed) above
Sequence of Integrin alpha-V/beta-5 (P06756 891-1048 limits assumed): as the sequence (P06756 891-1048 limits assumed) above
Sequence of Integrin alpha-V/beta-5 (P18084 24-799 limits assumed): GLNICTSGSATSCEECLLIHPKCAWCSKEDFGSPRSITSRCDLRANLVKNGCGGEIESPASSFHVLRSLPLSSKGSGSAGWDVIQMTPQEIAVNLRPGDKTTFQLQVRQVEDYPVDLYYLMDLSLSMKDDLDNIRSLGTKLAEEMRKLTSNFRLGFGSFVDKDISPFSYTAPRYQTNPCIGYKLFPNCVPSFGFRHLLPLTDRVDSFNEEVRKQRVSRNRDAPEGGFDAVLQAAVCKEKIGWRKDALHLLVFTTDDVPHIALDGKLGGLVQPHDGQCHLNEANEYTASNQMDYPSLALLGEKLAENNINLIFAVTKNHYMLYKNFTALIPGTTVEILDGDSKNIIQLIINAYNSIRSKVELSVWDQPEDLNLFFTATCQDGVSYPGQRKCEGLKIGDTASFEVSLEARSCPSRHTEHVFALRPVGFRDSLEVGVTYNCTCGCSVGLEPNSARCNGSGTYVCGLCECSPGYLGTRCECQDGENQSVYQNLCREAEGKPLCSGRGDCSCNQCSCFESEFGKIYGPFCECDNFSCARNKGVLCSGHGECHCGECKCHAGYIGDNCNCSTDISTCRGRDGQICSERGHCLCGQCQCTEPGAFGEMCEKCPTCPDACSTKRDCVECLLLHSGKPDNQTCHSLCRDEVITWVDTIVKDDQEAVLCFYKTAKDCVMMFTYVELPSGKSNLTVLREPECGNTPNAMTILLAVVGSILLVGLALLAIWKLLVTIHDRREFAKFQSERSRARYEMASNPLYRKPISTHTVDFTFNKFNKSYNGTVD

Integrin alpha-4/beta-1 [34] = biological target: T6, Integrin alpha-4/beta-1; experiment: Inhibition of recombinant human Integrin alpha4beta1 using TMB as substrate incubated for 2 hrs in presence of VCAM-1 by ELISA; assay type: protein-complex assay

SMILES: Cc1cc(C#N)cc(C)c1C(=O)N[C@@H](CNC(=O)Cn1c(=O)[nH]c2ncccc21)C(=O)O
IC50 (Integrin alpha-V/beta-6 [30]): > 10 µM
IC50 (Integrin alpha-V/beta-8 [31]): > 10 µM
IC50 (Integrin alpha-V/beta-3 [32]): > 10 µM
IC50 (Integrin alpha-5/beta-1 [33]): 2.51 µM
IC50 (Integrin alpha-V/beta-1 [1]): 0.01 µM
IC50 (Integrin alpha-V/beta-5): > 10 µM
IC50 (Integrin alpha-4/beta-1 [34]): 5.01 µM

SMILES: O=C(Cn1c(=O)[nH]c2ncccc21)NC[C@H](NC(=O)c1c(F)cc(-c2ccccc2)cc1Cl)C(=O)O
IC50 (Integrin alpha-V/beta-6 [30]): > 10 µM
IC50 (Integrin alpha-V/beta-8 [31]): 6.31 µM
IC50 (Integrin alpha-V/beta-3 [32]): > 10 µM
IC50 (Integrin alpha-5/beta-1 [33]): 0.631 µM
IC50 (Integrin alpha-V/beta-1 [1]): 0.0316 µM
IC50 (Integrin alpha-V/beta-5): > 10 µM
IC50 (Integrin alpha-4/beta-1 [34]): > 10 µM

SMILES: Cc1ccc(Cl)c(C(=O)N[C@@H](CNC(=O)Cn2c(=O)[nH]c3cc(F)c(F)cc32)C(=O)O)c1F
IC50 (Integrin alpha-V/beta-1 [1]): 0.001 µM
Papp A→B at 1 h [2]: 1.2 ×10⁻⁶ cm/s
Papp B→A at 1 h [3]: 0.2 ×10⁻⁶ cm/s

SMILES: O=C(Cn1c(=O)[nH]c2ncccc21)NC[C@H](NC(=O)c1c(Cl)cccc1Cl)C(=O)O
IC50 (Integrin alpha-V/beta-6 [30]): > 10 µM
IC50 (Integrin alpha-V/beta-8 [31]): 6.31 µM
IC50 (Integrin alpha-V/beta-3 [32]): > 10 µM
IC50 (Integrin alpha-5/beta-1 [33]): 0.398 µM
IC50 (Integrin alpha-V/beta-1 [1]): 0.00398 µM
IC50 (Integrin alpha-V/beta-5): > 10 µM
IC50 (Integrin alpha-4/beta-1 [34]): 3.16 µM

SMILES: O=C(Cn1c(=O)[nH]c2ncccc21)NC[C@H](NC(=O)c1ccccc1Cl)C(=O)O
IC50 (Integrin alpha-V/beta-6 [30]): 0.501 µM
IC50 (Integrin alpha-V/beta-8 [31]): > 10 µM
IC50 (Integrin alpha-V/beta-3 [32]): > 10 µM
IC50 (Integrin alpha-5/beta-1 [33]): 0.631 µM
IC50 (Integrin alpha-V/beta-1 [1]): 0.0126 µM
IC50 (Integrin alpha-V/beta-5): > 10 µM
IC50 (Integrin alpha-4/beta-1 [34]): 3.16 µM

SMILES: Cc1cc2[nH]c(=O)n(CC(=O)NC[C@H](NC(=O)c3c(Cl)ccc(C)c3F)C(=O)O)c2cc1C
IC50 (Integrin alpha-V/beta-1 [1]): 0.00158 µM
Papp A→B at 1 h [2]: 0.8 ×10⁻⁶ cm/s
Papp B→A at 1 h [3]: 0.6 ×10⁻⁶ cm/s

SMILES: Cc1nc2ccccc2n1CC(=O)NC[C@H](NC(=O)c1ccccc1Cl)C(=O)O
IC50 (Integrin alpha-V/beta-1 [1]): > 10 µM

SMILES: O=C(NC(Cc1ccccc1)C(=O)O)c1ccc(Cl)cc1Cl (configuration not stated)
IC50 (Integrin alpha-V/beta-6 [30]): > 31.6 µM
IC50 (Integrin alpha-V/beta-8 [31]): > 31.6 µM
IC50 (Integrin alpha-V/beta-3 [32]): > 31.6 µM
IC50 (Integrin alpha-5/beta-1 [33]): > 31.6 µM
IC50 (Integrin alpha-V/beta-1 [1]): 5.01 µM
IC50 (Integrin alpha-V/beta-5): > 31.6 µM

Compounds with a lower IC50 (Integrin alpha-V/beta-1 [1]), results first:

IC50 (Integrin alpha-V/beta-1 [1]): 0.000631 µM
Papp A→B at 1 h [2]: 1.2 ×10⁻⁶ cm/s
Papp B→A at 1 h [3]: 1.2 ×10⁻⁶ cm/s
SMILES: COc1ccc(Cl)c(C(=O)N[C@@H](CNC(=O)Cn2c(=O)[nH]c3ccncc32)C(=O)O)c1F

IC50 (Integrin alpha-V/beta-6 [30]): 3.98 µM
IC50 (Integrin alpha-V/beta-8 [31]): 2 µM
IC50 (Integrin alpha-V/beta-3 [32]): 5.01 µM
IC50 (Integrin alpha-5/beta-1 [33]): 0.0631 µM
IC50 (Integrin alpha-V/beta-1 [1]): 0.000631 µM
IC50 (Integrin alpha-V/beta-5): 3.98 µM
IC50 (Integrin alpha-4/beta-1 [34]): 1.58 µM
SMILES: Cc1ccc(Cl)c(C(=O)N[C@@H](CNC(=O)Cn2c(=O)[nH]c3ncccc32)C(=O)O)c1F

IC50 (Integrin alpha-V/beta-8 [4]): 9.55 µM
AUC(0-t) [5]: 4500 ng·h/mL
Cmax [6]: 390 ng/mL
half-life [7]: 3.3 h
IC50 (Integrin alpha-V/beta-3 [8]): > 10 µM
IC50 (Integrin alpha-V/beta-1 [9]): 0.0437 µM
IC50 (Integrin alpha-5/beta-1 [10]): > 31.6 µM
Vd [11]: 0.087 L/kg
IC50 (Integrin alpha-V/beta-1 [1]): 0.000316 µM
bioavailability [12]: 1.3%
IC50 (Integrin alpha-V/beta-6 [13]): > 10 µM
AUC(0-t) [14]: 44000 ng·h/mL
AUC(0-inf) [15]: 44000 ng·h/mL
Papp A→B at 1 h [2]: 3 ×10⁻⁶ cm/s
AUC(0-inf) [16]: 4800 ng·h/mL
Tmax [17]: 2.8 h
half-life [18]: 5.2 h
Tmax [19]: 4.7 h
half-life [20]: 3.32 h
IC50 (Integrin alpha-8/beta-1): > 31.6 µM
Cmax [21]: 66000 ng/mL
IC50 (Integrin alpha-V/beta-1 [22]): 0.427 µM
IC50 (Integrin alpha-4/beta-1 [23]): > 31.6 µM
bioavailability [24]: 59%
Drug uptake [25]: Dose-Dependent Effect
AUC(0-inf) [26]: 630000 ng·h/mL
Drug uptake [27]: Dose-Dependent Effect
AUC(0-t) [28]: 630000 ng·h/mL
Papp B→A at 1 h [3]: 3.2 ×10⁻⁶ cm/s
clearance [29]: 0.38 mL/min/kg
SMILES: Cc1ccc(Cl)c(C(=O)N[C@@H](CNC(=O)Cn2c(=O)[nH]c3nc(C)c(F)cc32)C(=O)O)c1F
Activity (Rattus norvegicus): Dose-Dependent Effect

IC50 (Integrin alpha-V/beta-6 [30]): < 0.000158 µM
IC50 (Integrin alpha-V/beta-8 [31]): < 0.000158 µM
IC50 (Integrin alpha-V/beta-3 [32]): 0.001 µM
IC50 (Integrin alpha-V/beta-1 [1]): 0.0002 µM
IC50 (Integrin alpha-4/beta-1 [34]): 3.16 µM
SMILES: O=C(CCCCc1ccc2c(n1)NCCC2)NCC(NC(=O)c1c(Cl)cccc1Cl)C(=O)O (racemic)
